Reference: patent US7524669B2 (priority 2002, dated 2009)
Where two headings read alike, the source gives them in different places.

Key:
[1] = test system: S. cerevisiae HD9 (fps1Δ acr3Δ ycf1Δ); assay type: cell-based, Saccharomyces cerevisiae; settings: strain HD9 (FPS1 deleted), 5 μM metalloid, FIG. 4
[2] = test system: S. cerevisiae HD9 (fps1Δ acr3Δ ycf1Δ); settings: HD9 vs MG102 (acr3Δ ycf1Δ), FIG. 3
AQP7 = settings: HD9 pAQP7
AQP9 [3] = biological target: T1, AQP9 (Rattus norvegicus, UniProt P56627); assay type: cell-based, Saccharomyces cerevisiae
T1 sequence (P56627 whole entry): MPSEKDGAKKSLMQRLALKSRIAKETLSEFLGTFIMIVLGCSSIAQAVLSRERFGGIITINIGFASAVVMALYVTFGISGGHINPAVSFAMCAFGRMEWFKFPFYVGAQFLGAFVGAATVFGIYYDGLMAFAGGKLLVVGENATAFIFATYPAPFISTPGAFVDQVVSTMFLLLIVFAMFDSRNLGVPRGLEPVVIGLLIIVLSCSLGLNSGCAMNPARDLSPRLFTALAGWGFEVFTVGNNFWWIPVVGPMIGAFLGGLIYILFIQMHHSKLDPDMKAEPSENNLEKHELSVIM

AQP9 [4] = biological target: T1, AQP9; settings: for effect of AQP9 expression on resistance/sensitivity of strain HD9: HD9 pAQP9, galactose induced, FIG. 3
[5] = test system: S. cerevisiae strains W303, W303 pYCF1, MG100, MG100 pYCF1; experiment: Metal ion resistance assay (growth in liquid SD medium), Example 1
[6] = test system: S. cerevisiae strains W303, W303 pYCF1, MG100, MG100 pYCF1; experiment: Arsenite transport (accumulation) assay in intact cells, Example 1; assay type: cell-based, Saccharomyces cerevisiae; settings: FIG. 2

In the case of `O.O.O.O=C([O-])[C@H]([O-])[C@@H]([O-])C(=O)[O-].O=C([O-])[C@H]([O-])[C@@H]([O-])C(=O)[O-].[K+].[K+].[Sb+3].[Sb+3]` [antimonite, potassium antimonyl tartrate], the “transport of radioactive metalloid into cells” value (“transport” for short) [1] is reported as “low rates of transport”, the “resistance of strain HD9 compared to strain MG102 (growth)” value [2] is reported as “relatively resistant” and the “effect of AQP7 on a plasmid on resistance of strain HD9” value (AQP7) is reported as “no effect on resistance”. For the same compound, the “transport” value (AQP9 [3]) was “facilitates transport” and the “effect of AQP9 expression on resistance/sensitivity of strain HD9” value (AQP9 [4]) was “reversed”.

For sodium arsenate, the “effect of AQP9 expression on resistance/sensitivity of strain HD9” value (AQP9 [4]) was “no effect on sensitivity”.

With `[Cl][Cd][Cl]` [cadmium, cadmium chloride] the “effect of AQP9 expression on resistance/sensitivity of strain HD9” value (AQP9 [4]) was “no effect on sensitivity”.

In the case of `OCC(O)CO` [glycerol], the “inhibition of 73As(OH)3 uptake by glycerol” value (AQP9 [3]) is reported as “reduced the uptake” and the “effect of glycerol on AQP9-related arsenite sensitivity in growth assays” value (AQP9 [4]) is reported as “small reversal of the AQP9-related arsenite sensitivity”.

With `O=[As]O` [arsenite, sodium arsenite] the “arsenite sensitivity (growth)” value ([5]; strain MG100 (ACR3Δ), FIG. 1) was “extremely arsenic sensitive”, the “arsenite resistance (growth)” value ([5]; strain MG100 pYCF1, FIG. 1) was “restores arsenite resistance” and the “arsenite resistance (growth)” value ([5]; strain W303 (wild type ACR3), FIG. 1) was “resistant to higher concentrations”. The “arsenite resistance (growth)” value ([5]; strain W303 pYCF1, Ycf1p expressed on a plasmid, FIG. 1) was “no effect on resistance”, the “accumulation of 73As(OH)3 in intact cells” value (“accumulation” for short) ([6]; strain MG100, 1.0 μM arsenite) was “accumulates more ^73As(III) than the wild type” and the “accumulation” value ([6]; strain MG100 pYCF1, 1.0 μM arsenite) was “accumulate much higher amounts of arsenite”. The “accumulation” value ([6]; strain W303, 1.0 μM arsenite) was “accumulate the least arsenic”, the “accumulation” value ([6]; strain W303 pYCF1, 1.0 μM arsenite) was “increases the amount of radioactive arsenite accumulated” and the “transport” value [1] was “reduced”. For the same compound, the “resistance of strain HD9 compared to strain MG102 (growth)” value [2] was “resistant”, the “effect of AQP7 on a plasmid on resistance of strain HD9” value (AQP7) was “no effect on resistance” and the “transport” value (AQP9 [3]; HD9 expressing AQP9, 5 μM metalloid, FIG. 4) was “accumulated more ^73As(OH)3 than the parental strain MG102”. For the same compound, the “effect of AQP9 expression on resistance/sensitivity of strain HD9” value (AQP9 [4]) was “reversed”.
